Measurements reported in patent US20220267479A1, “POLYIODIDE BINDING COMPOUNDS AND METHODS OF USE THEREOF” (North Carolina State University, priority 2019, published 2022).
“And” between values parts separate entries of the source, which are not always exact repeats. Equal entries are not always repeated. Marks after values point to notes of the source that are not given here.

Tests used:
Format in all cases: biochemical
[1] = system: β-glucosidase from almonds; test: Indigogenic reaction with β-glucosidase from almonds
Text: With diverse glucosyl-indoxyl compounds in hand, we carried out a set of studies to examine indigoid-dye formation upon enzymatic cleavage of the glucosyl unit under physiological conditions. Altogether, 14 new (15, 16, 19-27, 30, 33, 41) and 2 known (1, 42) synthetic indoxyl-glucosides (lacking acetyl protecting groups) were examined in an effort to identify suitable combinations of substituents to support both bioconjugation and indigoid dye formation. In initial studies, β-glucosidase from almonds was employed to trigger indigoid dye formation (Table 1). Thus, a mixture of this enzyme (1 unit/mL) and an indoxyl β-glucoside (0.1 μmol, 1 mM) in acetate buffer (pH 5, containing 5% DMF) was incubated at 37° C. for 16-19 h. All indigoid dye was dissolved in each case for quantitative evaluation.
Reactions with β-glucosidase from almonds. An indoxyl compound in DMF (5 μL, 20 mM) and β-glucosidase from almonds in H2O (10 μL, 10 units/mL) were mixed with acetate buffer (85 μL, 50 mM, pH 5.0). The reaction mixture was incubated at 37° C. for 16-19 h and then allowed to cool to room temperature. DMF (300 μL for the reactions of 15, 16, 1, 19, 22, and 25; or 900 μL for the reactions of 42, 20, 21, 23, 24, 26, 27, 30, and 31, respectively) was added to dissolve any indigoid precipitate. The resulting solution was analyzed by absorption spectroscopy.

[2] = system: rat liver homogenate; test: Indigoid-dye formation in rat liver homogenate; details: indoxyl 1 mM, 5% DMF, 37° C., 24 h; ε = 1.27 × 10^4 M^-1 cm^-1
Procedure: Finally, indigoid-dye formation was carried out in rat liver homogenate (Table 1, rightmost column).
Reactions in rat liver homogenate. An indoxyl compound in DMF (5 μL, 20 mM) was mixed with rat liver homogenate (95 μL). The reaction mixture was incubated at 37° C. for 24 h. After allowing to cool to room temperature, the reaction mixture was diluted with DMF (900 μL). The mixture was heated at 70° C. for 2 min and then centrifuged for 2 min. The supernatant was separated from any precipitate. This extraction procedure was repeated two or three times with DMF (100-500 μL). The combined supernatant (1500-1800 μL) was analyzed by absorption spectroscopy.

[3] = biological target: T1, β-glucosidase from Agrobacterium (Agrobacterium sp., UniProt P12614); test: Indigogenic reaction with β-glucosidase from Agrobacterium
T1 construct: purchased Megazyme; host or cells: recombinant
T1 sequence (P12614 1-459): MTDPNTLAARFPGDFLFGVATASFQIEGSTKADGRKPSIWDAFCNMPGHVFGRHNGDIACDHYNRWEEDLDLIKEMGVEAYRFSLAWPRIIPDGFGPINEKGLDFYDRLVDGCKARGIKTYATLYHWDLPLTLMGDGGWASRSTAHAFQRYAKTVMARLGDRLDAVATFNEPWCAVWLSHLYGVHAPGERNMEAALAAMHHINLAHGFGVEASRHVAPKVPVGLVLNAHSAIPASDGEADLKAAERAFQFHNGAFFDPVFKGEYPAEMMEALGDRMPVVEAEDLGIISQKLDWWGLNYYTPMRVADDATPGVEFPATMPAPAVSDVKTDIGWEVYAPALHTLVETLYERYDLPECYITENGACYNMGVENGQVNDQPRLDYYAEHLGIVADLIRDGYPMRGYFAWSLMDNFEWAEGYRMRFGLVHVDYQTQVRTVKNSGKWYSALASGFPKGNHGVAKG
Procedure: Next, the β-glucosidase from Agrobacterium sp. was investigated as the trigger enzyme for indigoid dye formation. […]
Reactions with β-glucosidase from Agrobacterium. An indoxyl compound in DMF (2 μL, 5 mM) and β-glucosidase from Agrobacterium in 10 mM phosphate buffer [2 μL, 10 μM, pH 7.0, containing 50 mM NaCl and 0.6 M (NH4)2SO4] were mixed with 50 mM phosphate buffer (96 μL, pH 7.0). The reaction mixture was incubated at 37° C. for 2 h and then centrifuged for 3 min. Any precipitate was separated from the supernatant and dissolved in DMF (200 μL). The resulting solution was analyzed by absorption spectroscopy. The experiment was repeated three times.

[4] = system: tritosomes; test: Indigoid dye formation with tritosomes
Procedure: The results from the glucosidase survey prompted several further experiments. First, a parallel set of studies was carried out with inclusion of several oxidants commonly employed in histochemical studies, given that the indigoid dye forming process requires the presence of an oxidant. […] The activity of the β-glucosidase was affected only slightly in the presence of a non-ionic detergent. To verify that the results observed in Table 1 were reliable, a 5-mg scale reaction of 33 was carried out to isolate indigo 43, which was obtained in 66% yield (Scheme 7). The 66% isolated yield corresponded well with the enzymatic yield of […] (Table 1, entry 15).
General methods. β-Glucosidase from almonds (lyophilized powder, >2 units/mg solid) and peroxidase from horseradish were purchased from Sigma-Aldrich. O-Glucosidase from Agrobacterium sp. (recombinant, suspension in 3.2 M (NH4)2SO4) was purchased from Megazyme; the concentration in solution was determined by absorption spectroscopy with E^0.1%32 2.20 cm^−1 at 280 nm.^37 Tritosomes were purchased from XenoTech. Rat liver homogenate was purchased from MP Biomedicals.

[5] = biological target: T1, β-glucosidase from Agrobacterium; test: Enzyme-triggered oligomerization of bis(indoxyl-glucoside) 46
Procedure: Oligomerization of 46 was carried out by treatment with β-glucosidase from Agrobacterium (200 nM) in 10 mM phosphate buffer (pH 7) at 37° C. for 2-4 h (Scheme 9). Precipitation occurred during the reaction. After centrifugation, the precipitate was separated from the supernatant, washed with H2O, and dried to afford a blue solid.
The efficacy of the indigogenic oligomerization was examined under a variety of conditions. As shown in entries 1-4 in Table 2, the yield of indigoid dye in the supernatant versus precipitate reversed as the concentration of 46 was decreased from 300 to 10 μM, although the total yields were in the range 17-29%. While the reactions in entries 1-4 were carried out in phosphate buffer containing NaCl (0.05 M), those of entries 5 and 6 (with 300 and 50 μM of 46, respectively) were conducted in NaCl-free phosphate buffer. The use of NaCl-free phosphate buffer facilitated extraction of the indigoid dye in the supernatant for analysis.

[6] = indoxyl 1 mM, enzyme 1 unit/mL, acetate buffer pH 5, 5% DMF, 37° C., 16-19 h, ε = 1.27 × 10^4 M^-1 cm^-1 (measured for 4)
[7] = indoxyl 100 μM, enzyme 200 nM, 0.05 M phosphate buffer pH 7.0, 2% DMF, 37° C., 2 h, n=3, ε = 1.27 × 10^4 M^-1 cm^-1
[8] = as E4 but ε = 2.6 × 10^4 M^-1 cm^-1 measured for 43
[9] = as E1 but ε = 2.6 × 10^4 M^-1 cm^-1 measured for 43
[10] = entry 1: [46] 300 μM, 2 h, phosphate buffer containing NaCl (0.05M)
[11] = entry 2: [46] 100 μM, 3 h, phosphate buffer containing NaCl (0.05M)
[12] = entry 3: [46] 50 μM, 2 h, phosphate buffer containing NaCl (0.05M), repeated three times
[13] = entry 4: [46] 10 μM, 4 h, phosphate buffer containing NaCl (0.05M)
[14] = entry 5: [46] 300 μM, 3 h, NaCl-free phosphate buffer containing DMF (0.1-0.6%)
[15] = entry 6: [46] 50 μM, 3 h, NaCl-free phosphate buffer containing DMF (0.1-0.6%)

| Compound | Yield (%) rat liver homogenate [2] [%] | Yield (%) β-glucosidase from almonds [1, 6] [%] | Yield (%) β-glucosidase from Agrobacterium [3, 7] [%] | Yield (%) β-glucosidase from Agrobacterium [3, 8] | also measured |
| --- | --- | --- | --- | --- | --- |
| 5-bromo-4-chloroindoxyl β-glucoside [Indoxyl 42, reference compound] | 65 |  |  |  | Yield (%) β-glucosidase from almonds ([1]; as E1 but ε = 2.00 × 10^4 M^-1 cm^-1 reported for 5,5′-dibromo-4,4′-dichloroindigo): 74% and 74^e %; Yield (%) β-glucosidase from Agrobacterium ([3]; as E4 but ε = 2.00 × 10^4 M^-1 cm^-1 reported for 5,5′-dibromo-4,4′-dichloroindigo): 116% and 116 ± 8^e % |
| C#CCOc1ccc2[nH]cc(O[C@@H]3O[C@H](CO)[C@@H](O)[C@H](O)[C@H]3O)c2c1 [Indoxyl 25, 5-Propargyloxy-1H-indol-3-yl β-D-glucopyranoside] | 11 | <5 | 37 ± 2 |  |  |
| COc1nc(Oc2ccc3[nH]cc(O[C@@H]4O[C@H](CO)[C@@H](O)[C@H](O)[C@H]4O)c3c2Br)nc(N2CCOCC2)n1 [Indoxyl 20, 4-Bromo-5-[(4-methoxy-6-morpholino-1,3,5-triazin-2-yl)oxy]-1H-indole-3-yl β-D-glucopyranoside] | <5 |  | 150 ± 3 |  |  |
| 5-[(Benzylcarbamoyl)oxy)]-1H-indole-3-yl β-D-glucopyranoside [Indoxyl 16] | 9 |  |  |  | Indigoid dye formation with tritosomes [4]: low yield of indigoid dye |
| OC[C@H]1O[C@@H](Oc2c[nH]c3cc(Br)c(OCC4[C@H]5CCC#CCC[C@@H]45)c(Br)c23)[C@H](O)[C@@H](O)[C@@H]1O (stereo partly drawn) [Indoxyl 30, 5-{[(1R,8S,9s)-Bicyclo[6.1.0]non-4-yn-9-yl]methoxy}-4,6-dibromo-1H-indole-3-yl β-D-glucopyranoside] |  |  | 21 ± 1 | 10% and 10 ± 0.4% |  |
| COC(=O)COc1c(Br)cc2[nH]cc(O[C@@H]3O[C@H](CO)[C@@H](O)[C@H](O)[C@H]3O)c2c1Br [Indoxyl 24, 4,6-Dibromo-5-(methoxycarbonyl)methoxy-1H-indol-3-yl β-D-glucopyranoside] | <5 | 122 | 209 ± 6 | 102 ± 3% | Yield (%) β-glucosidase from almonds [1, 9]: 59% |
| C#CCOc1c(Br)cc2[nH]cc(O[C@@H]3O[C@H](CO)[C@@H](O)[C@H](O)[C@H]3O)c2c1Br [Indoxyl 27, 4,6-Dibromo-5-propargyloxy-1H-indol-3-yl β-D-glucopyranoside] | 50 | 105 | 184 ± 3 | 89 ± 2% | Yield (%) β-glucosidase from almonds [1, 9]: 51% |
| COc1nc(Oc2c(Br)cc3[nH]cc(O[C@@H]4O[C@H](CO)[C@@H](O)[C@H](O)[C@H]4O)c3c2Br)nc(N2CCOCC2)n1 [Indoxyl 21, 4,6-Dibromo-5-[(4-methoxy-6-morpholino-1,3,5-triazin-2-yl)oxy]-1H-indole-3-yl β-D-glucopyranoside] | <5 |  | 63 ± 4 | 31 ± 2% |  |
| C#CCOc1ccc2[nH]cc(O[C@@H]3O[C@H](CO)[C@@H](O)[C@H](O)[C@H]3O)c2c1Br [Indoxyl 26, 4-Bromo-5-propargyloxy-1H-indol-3-yl β-D-glucopyranoside] | 17 | 56 | 79 ± 1 |  |  |
| O=S(=O)([O-])CCC[N+]1(CCCO)CCN(c2nc(OCCOCCOCCOc3c(Br)cc4[nH]cc(O[C@@H]5O[C@H](CO)[C@@H](O)[C@H](O)[C@H]5O)c4c3Br)nc(OCCOCCOCCOc3c(Br)cc4[nH]cc(O[C@@H]5O[C@H](CO)[C@@H](O)[C@H](O)[C@H]5O)c4c3Br)n2)CC1 [Indoxyl 46] |  |  |  |  | Total yields of indigoid dye (supernatant plus precipitate) ([5]; entries 1-4, [46] 300 to 10 μM): 17-29%; Yield of indigoid dye (%) precipitate [5, 10]: 11%; Yield of indigoid dye (%) supernatant [5, 10]: 6%; Yield of indigoid dye (%) precipitate [5, 11]: 14%; Yield of indigoid dye (%) supernatant [5, 11]: 10%; Yield of indigoid dye (%) precipitate [5, 12]: 16 ± 0.6^c %; Yield of indigoid dye (%) supernatant [5, 12]: 13 ± 0.4^c %; Yield of indigoid dye (%) precipitate [5, 13]: 6%; Yield of indigoid dye (%) supernatant [5, 13]: 22%; Yield of indigoid dye (%) precipitate [5, 14]: 13%; Yield of indigoid dye (%) supernatant [5, 14]: 13%; Yield of indigoid dye (%) precipitate [5, 15]: 8%; Yield of indigoid dye (%) supernatant [5, 15]: 19% |
| COC(=O)COc1ccc2[nH]cc(O[C@@H]3O[C@H](CO)[C@@H](O)[C@H](O)[C@H]3O)c2c1 [Indoxyl 22, 5-(Methoxycarbonyl)methoxy-1H-indol-3-yl β-D-glucopyranoside] | <5 | <1 | 30 ± 6 |  |  |
| COC(=O)COc1ccc2[nH]cc(O[C@@H]3O[C@H](CO)[C@@H](O)[C@H](O)[C@H]3O)c2c1Br [Indoxyl 23, 4-Bromo-5-(methoxycarbonyl)methoxy-1H-indol-3-yl β-D-glucopyranoside] | <5 | 68 | 84 ± 4 |  |  |
